Data reported in patent publication US20250195521A1 (Revolution Medicines, Inc., priority 2020, published 2025).
pIC50: −log10 of the molar value. Like-named read-outs stand apart in the source and are kept apart here.

Key:
KRAS G13C = KRAS G13C (Homo sapiens (Human), UniProt P01116+P62937, G13C); test: Ras-Raf disruption/FRET/MOA assay (BRAF RBD, Cyclophilin A); type: biochemical; conditions: read-out: KRAS G13C FRET IC50
Summary of the method: (§1)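 Ras-GMPPNP (12.5 nM), BRAF RBD (50 nM) and 25 μM Cyclophilin A were incubated with compound for 3 h at 25° C, then detected 1.5 h with anti-His Eu and anti-GST APC; IC50 values follow from the reduced TR-FRET ratio.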

KRAS G12C = KRAS G12C (Homo sapiens (Human), UniProt P01116+P62937, G12C); test: as above; type: biochemical; conditions: read-out: KRAS G12C FRET IC50
KRAS G12C, sequence (P01116-2 other isoform, or with tags, fused parts or gaps G12C): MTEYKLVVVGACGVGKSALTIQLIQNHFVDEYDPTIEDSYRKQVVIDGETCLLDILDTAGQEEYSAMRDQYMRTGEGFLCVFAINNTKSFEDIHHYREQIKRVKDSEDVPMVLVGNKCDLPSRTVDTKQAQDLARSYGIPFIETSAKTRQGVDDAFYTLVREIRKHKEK
KRAS G12C, sequence (P62937 whole entry): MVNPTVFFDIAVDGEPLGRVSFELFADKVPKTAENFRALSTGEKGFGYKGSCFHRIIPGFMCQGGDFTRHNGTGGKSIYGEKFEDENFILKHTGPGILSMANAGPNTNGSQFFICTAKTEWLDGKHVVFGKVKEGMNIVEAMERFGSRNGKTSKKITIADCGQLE
Summary of the method: as §1

KRAS G12D = KRAS G12D (Homo sapiens (Human), UniProt P01116+P62937, G12D); test: as above; type: biochemical; conditions: read-out: KRAS G12D FRET IC50
KRAS G12D, sequence (P01116 other isoform, or with tags, fused parts or gaps G12D): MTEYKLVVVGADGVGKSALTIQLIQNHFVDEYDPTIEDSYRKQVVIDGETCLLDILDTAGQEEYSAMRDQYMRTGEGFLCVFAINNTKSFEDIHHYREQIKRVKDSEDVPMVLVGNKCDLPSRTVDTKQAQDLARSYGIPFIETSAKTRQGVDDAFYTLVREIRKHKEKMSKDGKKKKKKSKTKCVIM
KRAS G12D, sequence (P62937 whole entry): as the sequence (P62937 whole entry) above
Summary of the method: as §1

KRAS G13D = KRAS G13D (Homo sapiens (Human), UniProt P01116+P62937, G13D); test: as above; type: biochemical; conditions: read-out: KRAS G13D FRET data IC50
KRAS G13D, sequence (P01116 other isoform, or with tags, fused parts or gaps G13D): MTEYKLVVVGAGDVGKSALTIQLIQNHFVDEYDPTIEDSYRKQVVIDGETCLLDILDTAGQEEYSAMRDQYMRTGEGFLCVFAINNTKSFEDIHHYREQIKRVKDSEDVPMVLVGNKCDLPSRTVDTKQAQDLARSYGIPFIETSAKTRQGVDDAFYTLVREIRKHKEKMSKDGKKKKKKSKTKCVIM
KRAS G13D, sequence (P62937 whole entry): as the sequence (P62937 whole entry) above
Summary of the method: as §1

NRAS G12C = NRAS G12C (Homo sapiens (Human), UniProt P01111+P62937, G12C); test: as above; type: biochemical; conditions: read-out: NRAS G12C FRET data IC50
NRAS G12C, sequence (P01111 whole entry G12C): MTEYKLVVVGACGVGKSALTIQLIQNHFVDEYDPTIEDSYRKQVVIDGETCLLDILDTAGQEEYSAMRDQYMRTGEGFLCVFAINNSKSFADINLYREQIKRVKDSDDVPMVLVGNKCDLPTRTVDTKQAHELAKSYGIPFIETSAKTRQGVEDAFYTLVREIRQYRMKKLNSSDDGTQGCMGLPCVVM
NRAS G12C, sequence (P62937 whole entry): as the sequence (P62937 whole entry) above
Summary of the method: (§2)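 First, 25 μM Cyclophilin A, 12.5 nM His6-Ras-GMPPNP and 50 nM GST-BRAF RBD are mixed with diluted compound at pH 7.3. Next, 3 h at 25° C. Then 10 nM anti-His Eu-W1024 plus 50 nM anti-GST allophycocyanin for 1.5 h before TR-FRET reading.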

NRAS WT = NRAS WT (Homo sapiens (Human), UniProt P01111+P62937); test: as above; type: biochemical
NRAS WT, sequence (P01111 whole entry): as the sequence (P01111 whole entry G12C) above, with C12G counted along it
NRAS WT, sequence (P62937 whole entry): as the sequence (P62937 whole entry) above
Summary of the method: as §2

KRAS G12S = KRAS G12S (Homo sapiens (Human), UniProt P01116+P62937, G12S); test: as above; type: biochemical; conditions: read-out: KRAS G12S FRET IC50
KRAS G12S, sequence (P01116 other isoform, or with tags, fused parts or gaps G12S): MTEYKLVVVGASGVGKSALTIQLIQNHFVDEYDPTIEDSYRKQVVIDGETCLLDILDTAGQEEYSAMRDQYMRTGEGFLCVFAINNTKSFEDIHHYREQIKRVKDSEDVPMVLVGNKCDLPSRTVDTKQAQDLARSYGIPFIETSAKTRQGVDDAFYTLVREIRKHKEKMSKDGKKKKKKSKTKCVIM
KRAS G12S, sequence (P62937 whole entry): as the sequence (P62937 whole entry) above
Summary of the method: as §1

KRAS Q61H = KRAS Q61H (Homo sapiens (Human), UniProt P01116+P62937, Q61H); test: as above; type: biochemical
KRAS Q61H, sequence (P01116 other isoform, or with tags, fused parts or gaps Q61H): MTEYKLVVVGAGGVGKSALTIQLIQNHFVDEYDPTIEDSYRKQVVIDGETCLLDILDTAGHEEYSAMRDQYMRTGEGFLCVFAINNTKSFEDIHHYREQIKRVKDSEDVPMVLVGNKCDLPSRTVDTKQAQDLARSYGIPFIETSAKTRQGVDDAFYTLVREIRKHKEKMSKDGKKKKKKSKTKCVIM
KRAS Q61H, sequence (P62937 whole entry): as the sequence (P62937 whole entry) above
Summary of the method: as §1

KRAS WT = KRAS WT (Homo sapiens (Human), UniProt P01116+P62937); test: as above; type: biochemical; conditions: read-out: KRAS WT FRET data IC50
KRAS WT, sequence (P01116 other isoform, or with tags, fused parts or gaps): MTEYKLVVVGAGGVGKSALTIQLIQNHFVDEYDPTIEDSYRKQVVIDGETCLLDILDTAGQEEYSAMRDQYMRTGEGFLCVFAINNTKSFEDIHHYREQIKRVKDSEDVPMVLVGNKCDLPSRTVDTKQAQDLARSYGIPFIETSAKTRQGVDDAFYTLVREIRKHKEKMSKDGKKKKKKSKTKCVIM
KRAS WT, sequence (P62937 whole entry): as the sequence (P62937 whole entry) above
Summary of the method: as §1

KRAS G12V = KRAS G12V (Homo sapiens (Human), UniProt P01116+P62937, G12V); test: as above; type: biochemical; conditions: read-out: KRAS G12V FRET IC50
KRAS G12V, sequence (P01116 other isoform, or with tags, fused parts or gaps G12V): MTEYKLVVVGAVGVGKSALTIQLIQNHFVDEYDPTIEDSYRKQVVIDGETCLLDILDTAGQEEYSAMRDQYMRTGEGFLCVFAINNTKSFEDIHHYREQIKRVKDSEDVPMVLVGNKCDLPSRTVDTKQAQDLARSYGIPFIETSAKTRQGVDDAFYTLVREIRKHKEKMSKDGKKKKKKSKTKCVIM
KRAS G12V, sequence (P62937 whole entry): as the sequence (P62937 whole entry) above
Summary of the method: as §1

[1] = system: NCI-H358 cells (K-Ras G12C); test: CellTiter-Glo cell viability, NCI-H358; type: cell-based, human; conditions: K-Ras G12C, 5-day treatment, read-out: H358 Cell Viability IC50
Summary of the method: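 Compounds were dispensed directly onto seeded cells and incubated until day 5, then plates were equilibrated at room temperature for about 30 min before CellTiter-Glo luminescence readout. Signals were normalized as (sample/average DMSO)×100 and fitted with a four-parameter logistic model.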

NRAS Q61R = NRAS Q61R (Homo sapiens (Human), UniProt P01111+P62937, Q61R); test: Ras-Raf disruption/FRET/MOA assay (BRAF RBD, Cyclophilin A); type: biochemical
NRAS Q61R, sequence (P01111 whole entry Q61R): as the sequence (P01111 whole entry G12C) above, with C12G, Q61R counted along it
NRAS Q61R, sequence (P62937 whole entry): as the sequence (P62937 whole entry) above
Summary of the method: as §2

KRAS G13C, sequence (P01116 other isoform, or with tags, fused parts or gaps G13C): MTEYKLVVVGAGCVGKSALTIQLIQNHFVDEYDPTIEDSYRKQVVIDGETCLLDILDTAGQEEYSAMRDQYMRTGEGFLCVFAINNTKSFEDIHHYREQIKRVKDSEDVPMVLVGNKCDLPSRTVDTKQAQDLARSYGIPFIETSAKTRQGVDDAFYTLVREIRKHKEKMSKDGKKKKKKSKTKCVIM
KRAS G13C, sequence (P62937 whole entry): as the sequence (P62937 whole entry) above

pIC50 (KRAS G13C) | pIC50 (KRAS G12C) | pIC50 (KRAS G12D) | pIC50 (KRAS G13D) | pIC50 (NRAS G12C) | pIC50 (NRAS WT) | pIC50 (KRAS G12S) | pIC50 (KRAS Q61H) | pIC50 (KRAS WT) | pIC50 (KRAS G12V) | pIC50 ([1]; Homo sapiens, NCI-H358, 120 h) | pIC50 (NRAS Q61R) | SMILES | pIC50 [1]
6.00 to 7.00 | 7.00 to 8.00 | 6.00 to 7.00 | 6.00 to 7.00 | 7.00 to 8.00 | 7.00 to 8.00 | 6.00 to 7.00 | 7.00 to 8.00 | 6.00 to 7.00 | 6.00 to 7.00 |  |  | CCn1c(-c2cc(N3CCN(C)CC3)cnc2[C@H](C)OC)c2c3cc(ccc31)-c1csc(n1)C[C@H](NC(=O)[C@H](C(C)C)N(C)C(=O)N1CC(OC)C1)C(=O)N1CCC[C@H](N1)C(=O)OCC(C)(C)C2 [Compound A466] | 
6.00 to 7.00 | 6.00 to 7.00 | 5.00 to 6.00 | 5.00 to 6.00 | 6.00 to 7.00 | 6.00 to 7.00 | 6.00 to 7.00 | 7.00 to 8.00 | 6.00 to 7.00 | 6.00 to 7.00 |  | 6.00 to 7.00 | CCn1c(-c2cccnc2[C@H](C)OC)c2c3cc(ccc31)-c1csc(n1)C[C@H](NC(=O)[C@H](C(C)C)N(C)C(=O)N1CCC13CCS(=O)(=O)CC3)C(=O)N1CCC[C@H](N1)C(=O)OCC(C)(C)C2 [Compound A530] | 
6.00 to 7.00 | 7.00 to 8.00 | 6.00 to 7.00 | 6.00 to 7.00 | 7.00 to 8.00 | 7.00 to 8.00 | 6.00 to 7.00 | 7.00 to 8.00 | 6.00 to 7.00 | 6.00 to 7.00 | 7.00 to 8.00 | 6.00 to 7.00 | CCn1c(-c2cccnc2[C@H](C)OC)c2c3cc(ccc31)-c1csc(n1)C[C@H](NC(=O)[C@H](C(C)C)N(C)C(=O)N1CC([C@H](C)COC)C1)C(=O)N1CCC[C@H](N1)C(=O)OCC(C)(C)C2 [Compound A533] | 
6.00 to 7.00 | 7.00 to 8.00 | 6.00 to 7.00 | 6.00 to 7.00 | 7.00 to 8.00 | 6.00 to 7.00 | 6.00 to 7.00 | 7.00 to 8.00 | 6.00 to 7.00 | 6.00 to 7.00 | 7.00 to 8.00 | 6.00 to 7.00 | CCn1c(-c2cccnc2[C@H](C)OC)c2c3cc(ccc31)-c1csc(n1)C[C@H](NC(=O)[C@H](C(C)C)N(C)C(=O)N1CC([C@H](C)N(C)C)C1)C(=O)N1CCC[C@H](N1)C(=O)OCC(C)(C)C2 [Compound A538] | 
7.00 to 8.00 | 7.00 to 8.00 | 7.00 to 8.00 | 7.00 to 8.00 | 7.00 to 8.00 | 7.00 to 8.00 | 7.00 to 8.00 | 7.00 to 8.00 | 7.00 to 8.00 | 7.00 to 8.00 | 7.00 to 8.00 |  | CCn1c(-c2cccnc2[C@H](C)OC)c2c3cc(ccc31)-c1cc(O)cc(c1)C[C@H](NC(=O)[C@H](C(C)C)N(C)C(=O)[C@@H]1OCC[C@H]1c1ccccc1)C(=O)N1CCC[C@H](N1)C(=O)OCC(C)(C)C2 [Compound A584] | 

The next lines start with the molecule.

SMILES | pIC50 (KRAS G13C) | pIC50 (KRAS G12C) | pIC50 (KRAS G12D) | pIC50 (KRAS G13D) | pIC50 (NRAS G12C) | pIC50 (NRAS WT) | pIC50 (KRAS G12S) | pIC50 (KRAS Q61H) | pIC50 (KRAS WT) | pIC50 (KRAS G12V) | pIC50 ([1]; Homo sapiens, NCI-H358, 120 h) | pIC50 (NRAS Q61R) | pIC50 [1]
CCn1c(-c2cccnc2[C@H](C)OC)c2c3cc(ccc31)-c1csc(n1)C[C@H](NC(=O)[C@H](C(C)C)N(C)C(=O)N1CCN(C(C)=O)CC1)C(=O)N1CCC[C@H](N1)C(=O)OCC(C)(C)C2 [Compound A291] | 6.00 to 7.00 | 7.00 to 8.00 | 6.00 to 7.00 | 6.00 to 7.00 | 7.00 to 8.00 | 7.00 to 8.00 | 7.00 to 8.00 | 7.00 to 8.00 | 7.00 to 8.00 | 6.00 to 7.00 |  |  | 
CCn1c(-c2cccnc2[C@H](C)OC)c2c3cc(ccc31)-c1csc(n1)C[C@H](NC(=O)[C@H](C(C)C)N(C)C(=O)N1CCOC[C@@H]1C)C(=O)N1CCC[C@H](N1)C(=O)OCC(C)(C)C2 [Compound A403] | 6.00 to 7.00 | 6.00 to 7.00 | 5.00 to 6.00 | 6.00 to 7.00 | 6.00 to 7.00 |  | 6.00 to 7.00 |  | 6.00 to 7.00 | 6.00 to 7.00 | 7.00 to 8.00 |  | 
CCn1c(-c2cccnc2[C@H](C)OC)c2c3cc(ccc31)-c1cc(O)cc(c1)C[C@H](NC(=O)[C@H](C(C)C)N(C)C(=O)C1CCC3(CCOC3)O1)C(=O)N1CCC[C@H](N1)C(=O)OCC(C)(C)C2 (stereo partly drawn) [Compound A409] | 7.00 to 8.00 | 7.00 to 8.00 | 6.00 to 7.00 | 7.00 to 8.00 | 7.00 to 8.00 | 7.00 to 8.00 | 7.00 to 8.00 | 7.00 to 8.00 | 7.00 to 8.00 | 6.00 to 7.00 | 6.00 to 7.00 | 6.00 to 7.00 | 
CCn1c(-c2cccnc2[C@H](C)OC)c2c3cc(ccc31)-c1cc(O)cc(c1)C[C@H](NC(=O)[C@H](C(C)C)N(C)C(=O)[C@@H]1[C@H]3CC[C@H](C3)[C@@H]1N)C(=O)N1CCC[C@H](N1)C(=O)OCC(C)(C)C2 [Compound A417] | 6.00 to 7.00 | 6.00 to 7.00 | 6.00 to 7.00 | 6.00 to 7.00 | 6.00 to 7.00 |  | 6.00 to 7.00 |  | 6.00 to 7.00 | 5.00 to 6.00 | 6.00 to 7.00 |  | 
CCn1c(-c2cccnc2[C@H](C)OC)c2c3cc(ccc31)-c1csc(n1)C[C@H](NC(=O)[C@H](C(C)C)N(C)C(=O)N1C[C@@H]3OCCN(C)[C@@H]3C1)C(=O)N1CCC[C@H](N1)C(=O)OCC(C)(C)C2 [Compound A444] | 6.00 to 7.00 | 7.00 to 8.00 | 6.00 to 7.00 | 6.00 to 7.00 | 7.00 to 8.00 | 6.00 to 7.00 | 6.00 to 7.00 | 7.00 to 8.00 | 6.00 to 7.00 | 6.00 to 7.00 | 7.00 to 8.00 | 6.00 to 7.00 | 
CCO[C@@H]1c2nc(cs2)-c2ccc3c(c2)c(c(-c2cc(C4CCN(C5COC5)CC4)cnc2[C@H](C)OC)n3CC)CC(C)(C)COC(=O)[C@@H]2CCCN(N2)C(=O)[C@H]1NC(=O)[C@H]1[C@H](C)[C@@H]1C [Compound A449, (1r,2R,3S)—N-((6^3S,3S,4S,Z)-3-ethoxy-1^1-ethyl-1^2-(2-((S)-1-methoxyethyl)-5-(1-(oxetan-3-yl)piperidin-4-yl)pyridin-3-yl)-10,10-dimethyl-5,7-dioxo-6^1,6^2,6^3,6^4,6^5,6^6-hexahydro-1^1H-8-oxa-2 (4,2)-thiazola-1 (5,3)-indola-6 (1,3)-pyridazinacycloundecaphane-4-yl)-2,3-dimethylcyclopropane-1-carboxamide] | 6.00 to 7.00 | 6.00 to 7.00 | 5.00 to 6.00 |  |  |  | 5.00 to 6.00 | 6.00 to 7.00 |  | 5.00 to 6.00 |  |  | 6.00 to 7.00
CCn1c(-c2cccnc2[C@H](C)OC)c2c3cc(ccc31)-c1csc(n1)[C@@H](OCC1CCN(C)CC1)[C@H](NC(=O)[C@H]1C[C@@H]1C)C(=O)N1CCC[C@H](N1)C(=O)OCC(C)(C)C2 [Compound A451, (1S,2S)—N-((6^3S,3S,4S,Z)-1^1-ethyl-1^2-(2-((S)-1-methoxyethyl)pyridin-3-yl)-10,10-dimethyl-3-((1-methylpiperidin-4-yl)methoxy)-5,7-dioxo-6^1,6^2,6^3,6^4,6^5,6^6-hexahydro-1^1H-8-oxa-2 (4,2)-thiazola-1 (5,3)-indola-6 (1,3)-pyridazinacycloundecaphane-4-yl)-2-methylcyclopropane-1-carboxamide] | 6.00 to 7.00 | 6.00 to 7.00 | 5.00 to 6.00 |  |  |  | 6.00 to 7.00 | 6.00 to 7.00 |  | 6.00 to 7.00 |  |  | 7.00 to 8.00
CCOC1c2nc(cs2)-c2ccc3c(c2)c(c(-c2cc(C4CC5COCC(C4)N5C4CC4)cnc2C(C)OC)n3CC)CC(C)(C)COC(=O)C2CCCN(N2)C(=O)C1NC(=O)C1C(C)C1C [Compound A483, (1r,2R,3S)—N-((6^3S,3S,4S,Z)-12-(5-((1R,5S,7s)-9-cyclopropyl-3-oxa-9-azabicyclo[3.3.1]nonan-7-yl)-2-((S)-1-methoxyethyl)pyridin-3-yl)-3-ethoxy-1^1-ethyl-10,10-dimethyl-5,7-dioxo-6^1,6^2,6^3,6^4,6^5,6^6-hexahydro-1^1H-8-oxa-2 (4,2)-thiazola-1 (5,3)-indola-6 (1,3)-pyridazinacycloundecaphane-4-yl)-2,3-dimethylcyclopropane-1-carboxamide] | 6.00 to 7.00 | 7.00 to 8.00 | 7.00 to 8.00 |  |  |  | 7.00 to 8.00 | 7.00 to 8.00 |  | 6.00 to 7.00 |  |  | > 8.00
